Source: patent publication US9382229B2, “Compounds and methods of use thereof for treating neurodegenerative disorders” (THE JOHNS HOPKINS UNIVERSITY, priority 2011, dated 2016)

How the values were obtained:
[1] = test system: retinal ganglion cells (RGCs); assay: RGC cell survival assay with murine purified RGCs, 3 days in culture (Calcein AM/Hoechst/Ethidium homodimer staining, Cellomics imager); type: cell-based, mouse; conditions: for RGC survival: purified mouse RGCs cultured 3 days with 25-5000 nM compound
Method: RGCs were purified from 2-5 day-old C57BL/6 mice, and cultured for 3 days in a media containing Neurobasal and B27, with or without 25-5000 nM of sunitinib (sun) or VX680. RGC survival was determined by combined staining with Calcein A M, Hoescht, and Ethidium homodimer. Images were acquired and analyzed with a Cellomics imager. Error bars: Mean±S.E.M.;
(§1) Purified mouse RGCs were cultured in the presence of sunitinib (0.5 μM), 25-5000 nM of VX680, JHU611 or JHU612, for 3 days. RGC survival was determined by combined staining with Calcein A M, Hoescht, and Ethidium homodimer. Images were acquired and analyzed with a Cellomics imager. Error bars: Mean±S.E.M.;
as §1, with “JHU609” for “JHU611”, “JHU610,” for “JHU612,”
as §1, with “JHU607” for “JHU611”, “JHU608,” for “JHU612,”, “days. The percentages of” for “days.”
RGCs were cultured with the indicated drug at the indicated concentration, cultured, and survival was monitored using a calcein AM assay with a Cellomics VTI imager (Thermo Scientific, 100 Technology Drive, Pittsburgh, Pa.) and image analysis software.

[2] = test system: primary murine retinal ganglion cells (RGCs); assay: RGC-based high content screen of small molecule libraries (CellTiter-Glo ATP, PI/Hoechst staining); type: cell-based, mouse; conditions: purified primary murine RGCs, CellTiter-Glo or PI/Hoechst
Method: Survival of purified mouse RGCs with increasing concentrations of VX680 (tozasertib) was determined by measuring cellular ATP levels with CellTiter-Glo (CTG), or by combined staining with Propidium iodide (PI) and Hoescht (Hoe) (PI/Hoe) (FIG. 8A). The efficacy in promoting primary mouse RGC survival by VX680 and NCGC00188382-01 was quantified and compared to sunitinib (FIGS. 8B and 8C).

[3] = test system: retinal ganglion cells (RGCs); assay: Time course of RGC cell survival with murine purified RGCs, up to 6 days in vitro; type: cell-based, mouse; conditions: for RGC survival: 6 days in vitro (DIV6), percent survival compared to zero time per FIG. 2 legend, Mean±S.E.M.
Method: FIG. 2 is a comparison of the relative efficacy of sunitinib, VX680 and neurotrophic factors in promoting RGC survival in vitro. […] Purified mouse RGCs were cultured in the presence of sunitinib (0.5 or 1 μM), VX680 (1 or 2 μM), and a combination of BDNF, CNTF, and GDNF, for up to 6 days. RGC survival (percent survival compared to zero time) was determined at the indicated day in vitro (DIV) (0, 1, 2, 3, and 6 DIV). Error bars: Mean±S.E.M.;
FIG. 3 is representative images showing the RGCs from the study described in FIG. 2;
For comparison, data from vehicle and BDNF/CNTF/GDNF also are shown.

[4] = test system: hippocampal neurons; assay: Hippocampal neuron survival against 3-nitropropionic acid (3-NP) induced cell death, MTT assay; type: cell-based; conditions: cell death induced by 3-NP, VX680 at 0.5, 1, 5 and 10 μM
Method: Cell death of hippocampal neurons was induced by the mitochondrial toxin 3-nitropropionic acid (3-NP). VX680 was added to the media at concentrations of 0.5 μM, 1 μM, 5 μM and 10 μM. Cell survival was determined using a MTT assay. The effect of VX680 on cell survival was analyzed with the student t-test. Error bars: Mean±S.D.; and […]

## Cc1cc(Nc2nc(Cl)nc(Sc3ccc(NC(=O)C4CC4)cc3)n2)n[nH]1 [JHU607, N-(4-(4-chloro-6-(5-methyl-1H-pyrazol-3-ylamino)-1,3,5-triazin-2-ylthio)phenyl)cyclopropanecarboxamide]
[1]
  RGC survival: promote RGC survival

## Cc1cc(Nc2nc(Sc3ccc(NC(=O)C4CC4)cc3)nc(N3CCNCC3)n2)n[nH]1 [JHU608, N-(4-(4-(5-methyl-1H-pyrazol-3-ylamino)-6-(piperazin-1-yl)-1,3,5-triazin-2-ylthio)phenyl)cyclopropanecarboxamide]
[1]
  RGC survival: promote RGC survival

## Cc1cc(Nc2nc(Sc3ccc(NC(=O)C4CC4)cc3)nc(N3CCOCC3)n2)n[nH]1 [JHU609, N-(4-(4-(5-methyl-1H-pyrazol-3-ylamino)-6-morpholino-1,3,5-triazin-2-ylthio)phenyl)cyclopropanecarboxamide]
[1]
  RGC survival: promote RGC survival

## Cc1cc(Nc2nc(Sc3ccc(NC(=O)C4CC4)cc3)nc(N3CCC(N4CCCC4)CC3)n2)n[nH]1 [JHU610, N-(4-(4-(5-methyl-1H-pyrazol-3-ylamino)-6-(4-(pyrrolidin-1-yl)piperidin-1-yl)-1,3,5-triazin-2-ylthio)phenyl)cyclopropanecarboxamide]
[1]
  RGC survival: promote RGC survival

## Cc1cc(Nc2nc(Sc3ccc(NC(=O)C4CC4)cc3)nc(N3CCC(O)CC3)n2)n[nH]1 [JHU611, N-(4-(4-(4-hydroxypiperidin-1-yl)-6-(5-methyl-1H-pyrazol-3-ylamino)-1,3,5-triazin-2-ylthio)phenyl)cyclopropanecarboxamide]
[1]
  RGC survival: promote RGC survival

## Cc1cc(Nc2nc(Sc3ccc(NC(=O)C4CC4)cc3)nc(N3CCCNCC3)n2)n[nH]1 [JHU612, N-(4-(4-(1,4-diazepan-1-yl)-6-(5-methyl-1H-pyrazol-3-ylamino)-1,3,5-triazin-2-ylthio)phenyl)cyclopropanecarboxamide]
[1]
  RGC survival: promote RGC survival

## CC(NCc1ccc2c(c1)nc(NC(=O)c1ccc(-c3cn[nH]c3)s1)n2CC(C)(C)O)C(C)(C)C (stereo not drawn) [NCGC00188382-01]
[2]
  RGC survival / neuroprotection in high content screen: neuroprotective compounds

## CCN(CC)CCNC(=O)c1c(C)[nH]c(/C=C2\C(=O)Nc3ccc(F)cc32)c1C [Sunitinib, sunitinib]
[3]; 0.5 μM
  RGC survival: 23.73 ± 1.17
[3]; 1 μM
  RGC survival: 26.37 ± 1.61

## Cc1cc(Nc2cc(N3CCN(C)CC3)nc(Sc3ccc(NC(=O)C4CC4)cc3)n2)[nH]n1 [VX-680, Tozasertib]
[4]
  survival of hippocampal neurons: promotes the survival of hippocampal neurons against mitochondrial injury and oxidative stress
[1]; FIG. 1, murine purified RGCs
  therapeutic window compared with sunitinib: wider therapeutic window
[1]; FIG. 1, murine purified RGCs, calcein AM assay, sunitinib as positive control
  cell survival promoting activity compared with sunitinib: more potent cell survival promoting activity than sunitinib
[1]
  RGC survival: promotes retinal ganglion cell (RGC) survival in vitro
[2]
  RGC survival / neuroprotection in high content screen: could promote the survival of cultured RGCs
[2]; listed as VX680
  RGC survival / neuroprotection in high content screen: neuroprotective compounds
[3]; 1 μM
  RGC survival: 49.66 ± 2.27
[3]; 2 μM
  RGC survival: 60.32 ± 2.47
[3]; FIG. 2, time course 0-6 DIV
  neuroprotective activity compared with sunitinib and BDNF/CNTF/GDNF combination: exceeds that of sunitinib and a combination of brain derived neurotrophic factor (BDNF) ciliary neurotrophic factor (CNTF), and glial-derived neurotrophic factor (GDNF)
